The values that follow come from patent US5468772A, “Tripterinin compound and method” (Pharmagenesis, Inc., priority 1993, dated 1995).

One test concerns HIV. As to conditions: cited from earlier work.
Test [1] deals with human peripheral blood lymphocytes. Kind of test: Suppression of human PBL proliferation in vitro ([3H]thymidine incorporation), with or without anti-CD3 (X-35). In kind it is cell-based. On the procedure:
One measure of immunosuppression is suppression of stimulated peripheral blood lymphocyte (PBL) proliferation in vitro. In the assay detailed in Example 3, PBLs were activated in vitro by addition of anti-CD3 monoclonal antibody (X-35 antibody). At the same time, purified tripterinin or vehicle (control) was added to each culture, at selected concentrations. After 72 hours incubation, tritiated thymidine was added to the culture medium, and thymidine incorporation into DNA was assayed, as a measure of DNA synthesis associated with cell proliferation.
The ability of tripterifordin to inhibit anti-CD3 stimulated PBL proliferation was assayed at concentrations of 0, 0.78, 3.13, and 12.5 μg/ml, with the results shown in FIG. 9.
Human peripheral blood lymphocytes were prepared using an established method (Boyum). Human blood buffy coat samples, approximately 25 ml/donor, were obtained from the Stanford University Medical Center Blood Bank. Using sterile technique, the buffy coat samples were gently resuspended in a total volume of 100 ml with the addition of calcium and magnesium free Hank's balanced salt solution (HBSS, obtained from Gibco) at room temperature. A volume of 25 ml of the cell suspension was then layered onto 15 ml of Ficoll-Pacque (Pharmacia LKB Biotechnology, Inc.) in a 50 ml conical centrifuge tube. Tubes were centrifuged in a Beckman GPR tabletop centrifuge (GH-3.7 Rotor) at 400×g for 30 minutes at 15° C.
Following centrifugation, the PBL suspensions at the interfaces were transferred to new 50 ml tubes using a transfer pipette, and the PBL samples were resuspended in a total volume of 45 ml HBSS and centrifuged at 354×g for 10 minutes at 15° C. Supernatants were discarded. PBL's were resuspended in 10 ml HBSS, combined to make a total of 45 ml HBSS, and centrifuged at 265×g for 10 minutes at 15° C. The cell pellets were suspended in 10 ml of X-Vivo tissue culture medium (Bio Whittaker) and counted using a hemocytometer. Tissue culture medium was then added to achieve a final cell concentration of 1× 10^6 cells/ml. Additional dilutions were carried out as required for each assay.
Assays were carried out in 96 well sterile tissue culture plates (Costar 3790 and Costar 3595). A volume of 150 μl of X-Vivo medium or sterile distilled water was added to the outer wells of the plate to prevent evaporation of medium within the experimental wells. PBL's from 2 different donors were used in parallel in all experiments. A volume of 100 μl PBL suspension was added to each well using a multichannel pipette. Plates were incubated in an atmosphere of 93% air/7% CO2 in a tissue culture incubator at 37° C. X-35 (AMAC #0178), an anti CD-3 surface antigen antibody, was used at 5 ng/ml to stimulate PBL proliferation.
Tripterinin or tripterifordin was dissolved in ethanol (10 mg/ml) and then diluted in sterile X-Vivo tissue culture medium to obtain the final concentrations required for each experiment.
Four hours prior to the conclusion of incubation, 50 μl of X-Vivo tissue culture medium containing 8 μCi/ml [^3 H]Thymidine (Amersham, 49 Ci/mmol) was added to each tissue culture well. After 72 hours total incubation time, the cells were removed from the tissue culture wells and applied to filter paper using a cell harvester (Brandel Model MB-24). The filter paper was dried for one hour under a heat lamp and then cut into 1 cm discs. Each sample was placed in a scintillation vial containing 2 ml of scintillation fluid (Biosafe, Research Products International Corp.). Samples were counted in a Beckman LS 6000SC scintillation counter.

In a further test the test system is mouse thymocytes. Put plainly: Inhibition of IL-1 action: IL-1 stimulated mouse thymocyte proliferation in presence of PHA. In kind it is cell-based. As to conditions: tripterifordin 3.13 μg/ml, about 3 μg/ml, tripterinin 0.02 to 1 μg/ml. Here is the method:
The ability of tripterinin and tripterifordin to suppress the cell-proliferative effect of IL-1 in mouse thymocytes, an index of IL-1 action (O'Gara), was also examined. In this study, mouse thymocytes in culture were stimulated with IL-1 in the presence of phytohemagglutinin (PHA) and increasing concentrations of purified tripterinin or tripterifordin. The cells were cultured for 72 hours, and during the last four hours, incubated with tritiated thymidine. DNA synthesis was assessed by measurement of radiolabeled thymidine incorporation.
Mouse thymocytes were prepared, and the action of IL-1, which stimulates thymocyte proliferation, was measured using standard techniques (O'Gara). Three to six week old C3H/HeN mice were obtained from Simonsen Laboratories, Gilroy, Calif. and sacrificed by CO2 inhalation. Thymi were removed, separated from adherent non-thymic tissue, homogenized in Hank's balanced salt solution (Gibco) using a glass homogenizer, and centrifuged at 180×g for 10 minutes at 15° C. Following an additional wash in HBSS, the thymocytes were resuspended in RPMI 1640 tissue culture medium (Gibco) containing 50 μM 2-mercaptoethanol (Fisher), 2 mM glutamine (Gibco), 1 mM sodium pyruvate, non-essential amino acids, penicillin (100 U/ml) streptomycin (100 μg/ml), 10% heat inactivated fetal bovine serum and Phytohemagglutinin (PHA, Pharmacia, final concentration 10 μg/ml). Cells were cultured in round-bottom 96 well microtiter tissue culture plates, 6×10^5 cells per well in a volume of 100 μl. Tripterinin or tripterifordin was diluted in tissue culture medium and added to the wells in the presence and absence of IL-1 (recombinant human IL-1, R&D Systems catalog #201-LB, 0.1 ng/ml). Total volume was 150 μl per well.
Plates were incubated for 72 hours (95% air/5% CO2, 37° C.). During the last four hours of incubation, [^3 H]-thymidine (Amersham, […]) was added (0.5 μCi per well). Cells were harvested onto Whatman 934-AH glass microfiber filters and counted in a Beckman LS 6000 scintillation counter. Results were expressed as counts per minute per well.

In a further test the test system is TNFα. The following applies: RA patients, long term administration; cited from earlier work.
The test system of a further test is IL-1. As to conditions: RA patients, long term administration; cited from earlier work.

As to `C[C@@]1(O)C[C@@]23CC[C@H]4[C@@]5(CCC[C@]4(C)C(=O)OC5)[C@@H]2CC[C@H]1C3` [tripterifordin, reference compound], the anti-HIV activity result with HIV is listed as “anti-HIV principle”. Also, in test [1] (highest concentration tested, 12.5 μg/ml, FIG. 9), the “inhibition of anti-CD3 stimulated PBL proliferation” value was “failed to significantly inhibit PBL proliferation”. In test [1] (stimulated and unstimulated (tripterinin), FIG. 9 (tripterifordin)), the “inhibitory effect on PBL proliferation” value was “little or no inhibitory effect”. Further, the “inhibition of IL-1 stimulated thymocyte proliferation” value was “little or no inhibitory effect” in the test on mouse thymocytes and “failed to inhibit” in the test with mouse thymocytes (listed as Tripterifordin).

For the compound `O=C(O)c1cc(/N=N/c2ccc(S(=O)(=O)Nc3ccccn3)cc2)ccc1O` [sulfasalazine], the “serum level of TNFα” value with TNFα was “decline”. Also, the “serum level of IL-1” value in the test on IL-1 is “decline”.
